Results as given in patent US20100190846A1, “MICROBICIDAL AGENT AND MICROBICIDAL COMPOSITION” (priority 2006, published 2010).

Key:
Type in all cases: cell-based
[1] = system: Yersinia enterocolitica; assay: Paper disk method microbicidal test; details: 2.5 mg/mL solution on 8.12 mm paper disk, 0 mg/mL control: 15.65 (flavone, 40% DMSO), — (catechin)
Description: As microbicidal test method for 5,7,4′-trihydroxy-3′,5′-dimethoxyflavone, the paper disk method was employed, by which method the microbicidal activity can be judged even in cases where a solvent has some influences.
In paper disk method, sample solutions having various sample concentration are prepared, and the sample solution was absorbed in a special paper disk, followed by drying the paper disk. Onto the plate which is made by mixing a prepared bacterial suspension with agar medium, the paper disks are placed. If the sample has a microbicidal activity, the inhibition ring which indicates the inhibition of bacterial growth is formed such that the center of the ring is coincident with the paper disk. The degree of a microbicidal activity is judged based on the size of the inhibition ring.
First, 4 mg of 5,7,4′-trihydroxy-3′,5′-dimethoxyflavone sample was dissolved in 200 μL to prepare 20 mg/mL sample solution. To 100 μL of this 20 mg/mL sample solution, 100 μL of sterilized water was added to prepare 200 μL of 10 mg/mL sample solution. To the solution, 60 μL DMSO and 140 μL of sterilized water were added to prepare 400 μL of 5.0 mg/mL sample solution. DMSO was used in the concentration of 40%, because the sample precipitated from 30% DMSO. To 350 μL of 5.0 mg/mL sample solution, 140 μL DMSO and 210 μL of sterilized water were added to prepare 700 μL of 2.5 mg/mL sample solution. In the same manner, 1.25 mg/mL and 0.625 mg/mL sample solutions were prepared. As a control, a solution containing 40% DMSO and 60% sterilized water was prepared. […] In a paper disk (8.12 mm diameter), 70 μL of these solutions each was absorbed, and the paper disks were dried for a day.
As test bacteria, Staphylococcus aureus, Salmonella sp., Yersinia enterocolitica, Pseudomonas aeruginosa, and Candida sp. were used. These bacteria were mixed with 2 mL of sterilized water to prepare bacterial suspensions having turbidity 1 (10^8/mL). The plate agar was made by mixing 0.2 mL of the bacterial suspension with 19.8 mL of BHI medium. The dried paper disk was placed onto the plate agar, and the plate was incubated in an incubator at 37° C., followed by assessing the activity. In the Table, (-) represents that no microbicidal activity was observed.

[2] = system: Escherichia coli; assay: Agar dilution method microbicidal test; as to Growth on agar plate: key: +: grew; −: did not grow
Description: (§1) As microbicidal test method for trans-p-coumaric acid, 3-hydroxypyridine, p-hydroxybenzaldehyde and vanillin, the agar dilution method was employed.
(§2) In agar dilution method, a solution in which a sample is dissolved is serially diluted several times, and each of the diluted sample solutions is mixed with agar medium to prepare plate agars having various sample concentration. Then bacteria is inoculated onto the plate agars. In cases where the sample has a microbicidal activity, the growth of the bacteria on the plates can be inhibited. The lowest concentration which can inhibit the growth of the bacteria is referred to as Minimum Inhibitory Concentration (MIC), thereby judging the degree of a microbicidal activity of the sample.
(§3) First, 400 mg of sample was dissolved in 1 mL of DMSO to prepare 400 mg/mL sample solution. Then 0.5 mL of this 400 mg/mL sample solution was diluted 2-fold to prepare 200 mg/mL sample solution. In the same manner, sample solutions of 100 mg/mL, 50.0 mg/mL, and 25.0 mg/mL were prepared. In addition, 300 mg/mL sample solution was prepared. Thereafter, 0.2 mL of these sample solutions each was mixed with 19.8 mL of BHI (Brain Heart Infusion Agar, Becton Dickinson, MD) medium, thereby preparing agar plates having the sample concentration of 4.0 mg/mL, 3.0 mg/mL, 2.0 mg/mL, 1.0 mg/mL, 0.5 mg/mL, and 0.25 mg/mL in dishes. […] Sterilized water was used for dissolving catechin, because catechin was insoluble in DMSO.
(§4) As test bacteria, 13 kinds of bacteria, i.e., Streptococcus pneumoniae, Streptococcus pyogenes, Enterococcus faecalis, Staphylococcus aureus, Escherichia coli, Salmonella sp., Yersinia enterocolitica, Vibrio parahaemolyticus, Pseudomonas aeruginosa, Bacillus cereus, Bacillus subtilis MB-32, Bacillus subtilis ATCC6633, and Candida sp., were used. These bacteria each was mixed with 2 mL of sterilized MHB^R liquid medium (Mueller Hinton Broth^R, Becton Dickinson, MD) to prepare bacterial suspension having turbidity 1 (bacterial concentration 10^8/mL). Previously, small test tubes were set into each cell of a grating and sterilized, and 1 mL of 13 bacterial suspensions were added into the small test tubes set in the grating, respectively. By using a microplanter (SAKUMA, model: MIT-P), 10 μL aliquot was collected from each test tube set in the grating and transferred to other test tube, and the transferred bacterial suspensions were diluted 100-fold (bacterial concentration 10^6/mL).
(§5) By using the microplanter, 10 μL (bacterial number […]) of this bacterial suspension was inoculated onto the plates containing the sample solution of various concentrations. The plates were incubated for 18 hours in an incubator at 37° C., and then a microbicidal activity of each compound was assessed.

[3] = system: Vibrio parahaemolyticus; assay: Agar dilution method microbicidal test; as to Growth on agar plate: key: +: grew; −: did not grow
Description: as §1, §2, §3, §4, §5

[4] = system: Bacillus cereus; assay: Agar dilution method microbicidal test; as to Growth on agar plate: key: +: grew; −: did not grow
Description: as §1, §2, §3, §4, §5

[5] = system: Streptococcus pneumoniae; assay: Agar dilution method microbicidal test; as to Growth on agar plate: key: +: grew; −: did not grow
Description: as §1, §2, §3, §4, §5

[6] = system: Yersinia enterocolitica; assay: Agar dilution method microbicidal test; as to Growth on agar plate: key: +: grew; −: did not grow
Description: as §1, §2, §3, §4, §5

[7] = system: Candida sp.; assay: Agar dilution method microbicidal test; as to Growth on agar plate: key: +: grew; −: did not grow
Description: as §1, §2, §3, §4, §5

Substance: catechin [reference compound]
- size of the inhibition ring [1]: 9.49
- Growth on agar plate ([2]; 0.25 mg/mL): +
- Growth on agar plate ([2]; 0.5 mg/mL): +
- Growth on agar plate ([2]; 1.0 mg/mL): +
- Growth on agar plate ([2]; 2.0 mg/mL): +
- Growth on agar plate ([2]; 3.0 mg/mL): +
- Growth on agar plate ([2]; 4.0 mg/mL): +
- MIC ([2]; BHI agar, 37° C., 18 hours): 2000 µg/mL
- Growth on agar plate ([3]; 0.25 mg/mL): +
- Growth on agar plate ([3]; 0.5 mg/mL): −
- Growth on agar plate ([3]; 1.0 mg/mL): −
- Growth on agar plate ([3]; 2.0 mg/mL): −
- Growth on agar plate ([3]; 3.0 mg/mL): −
- Growth on agar plate ([3]; 4.0 mg/mL): −
- MIC ([3]; BHI agar, 37° C., 18 hours): 500 µg/mL
- Growth on agar plate ([4]; 0.25 mg/mL): +
- Growth on agar plate ([4]; 0.5 mg/mL): +
- Growth on agar plate ([4]; 1.0 mg/mL): −
- Growth on agar plate ([4]; 2.0 mg/mL): −
- Growth on agar plate ([4]; 3.0 mg/mL): −
- Growth on agar plate ([4]; 4.0 mg/mL): −
- MIC ([4]; BHI agar, 37° C., 18 hours): 1000 µg/mL
- Growth on agar plate ([5]; 0.25 mg/mL): +
- Growth on agar plate ([5]; 0.5 mg/mL): +
- Growth on agar plate ([5]; 1.0 mg/mL): −
- Growth on agar plate ([5]; 2.0 mg/mL): −
- Growth on agar plate ([5]; 3.0 mg/mL): −
- Growth on agar plate ([5]; 4.0 mg/mL): −
- MIC ([5]; BHI agar, 37° C., 18 hours): 1000 µg/mL
- Growth on agar plate ([6]; 0.25 mg/mL): +
- Growth on agar plate ([6]; 0.5 mg/mL): +
- Growth on agar plate ([6]; 1.0 mg/mL): −
- Growth on agar plate ([6]; 2.0 mg/mL): −
- Growth on agar plate ([6]; 3.0 mg/mL): −
- Growth on agar plate ([6]; 4.0 mg/mL): −
- MIC ([6]; BHI agar, 37° C., 18 hours): 1000 µg/mL
- Growth on agar plate ([7]; 0.25 mg/mL): +
- Growth on agar plate ([7]; 0.5 mg/mL): +
- Growth on agar plate ([7]; 1.0 mg/mL): −
- Growth on agar plate ([7]; 2.0 mg/mL): −
- Growth on agar plate ([7]; 3.0 mg/mL): −
- Growth on agar plate ([7]; 4.0 mg/mL): −
- MIC ([7]; BHI agar, 37° C., 18 hours): 1000 µg/mL
